Columns and labels:
Palatase 20000 L = target: T1, Palatase 20000 L (Rhizomucor miehei, UniProt P19515); assay: pH-Stat titration; format: biochemical; conditions: commercial preparation; TC8 emulsion
T1 construct: commercial enzyme preparation (Novozymes)
T1 sequence (P19515 95-363): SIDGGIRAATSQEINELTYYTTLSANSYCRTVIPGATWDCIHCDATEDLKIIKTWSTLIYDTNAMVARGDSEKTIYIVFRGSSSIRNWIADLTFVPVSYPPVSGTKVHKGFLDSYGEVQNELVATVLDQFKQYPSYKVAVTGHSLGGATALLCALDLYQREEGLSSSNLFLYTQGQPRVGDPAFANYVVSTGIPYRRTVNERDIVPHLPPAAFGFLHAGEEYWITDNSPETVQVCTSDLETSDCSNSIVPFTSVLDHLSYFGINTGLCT

Lipolase = target: T2, Lipolase (Thermomyces lanuginosus, UniProt O59952); assay: pH-Stat titration; format: biochemical; conditions: commercial preparation; TC8 emulsion
T2 construct: gene LIP; commercial enzyme preparation (Novozymes)
T2 sequence (O59952 23-291): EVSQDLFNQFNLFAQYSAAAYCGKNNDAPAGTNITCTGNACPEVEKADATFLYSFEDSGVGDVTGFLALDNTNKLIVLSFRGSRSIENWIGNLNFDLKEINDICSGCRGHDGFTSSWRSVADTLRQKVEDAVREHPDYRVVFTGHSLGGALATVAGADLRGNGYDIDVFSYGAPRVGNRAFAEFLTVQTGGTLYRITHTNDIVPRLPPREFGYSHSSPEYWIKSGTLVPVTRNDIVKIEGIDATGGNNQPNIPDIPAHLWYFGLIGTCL

Q: Which results are given for `CCCCCCCC(=O)OCC(COC(=O)CCCCCCC)OC(=O)CCCCCCC` [TC8]?
A: pH-Stat titration (Palatase 20000 L): almost the same substrate specificity profile as PCrL under the same experimental conditions; pH-Stat titration (Lipolase): almost the same substrate specificity profile as PCrL under the same experimental conditions

From publication PMC9570478, “Purification, Biochemical and Kinetic Characterization of a Novel Alkaline sn-1,3-Regioselective Triacylglycerol Lipase from Penicillium crustosum Thom Strain P22 Isolated from Moroccan Olive Mill Wastewater” (International Journal of Molecular Sciences, 2022)
